Measurements as given in a melting point compilation (Tetko et al.; mined from patent text by program, amines drawn as free bases though some values may be those of a salt).

Structure (SMILES) | melting point [°C]
c1ccc(CC(Cc2ccccc2)(c2nnn[nH]2)c2nnn[nH]2)cc1 | 228 to 230
COC(=O)NCc1cc(OC)cc(Cl)c1Cl | 90 to 91
CCOC(=O)C1=C(O)c2cc(OC)c(OC)cc2NC(=O)C1 | 218
COc1cc(OCc2ccccn2)ccc1/C=C/c1cc(/C=C/c2c[nH]c3ccc(F)cc23)n[nH]1 | 209 to 213
CC1(C)Cc2ccc(C#N)cc2N(C(=O)Nc2ccccc2)C1 | 170 to 171
COC(=O)Cc1ccc(C#N)cc1 | 40 to 41
CC(c1ccncc1F)C(O)(Cn1cncn1)c1ccc(F)cc1F (configuration not stated) | 188 to 189
CCOC(=O)c1c(Cn2cncn2)nc2cc(OC)c(OC)cc2c1-c1ccc(O)c(O)c1 | 122 to 124
O=Cc1c(Cl)c(Cl)c(Cl)c(Cl)c1Cl | 201 to 203
CN(CCCC(C(N)=O)(c1ccccc1)c1ccccc1)CCc1ccc2c(c1)OCO2 | 89 to 90
O=C1NC(=O)C(c2c3n(c4ccccc24)CCC(CO)C3)=C1c1cccc(C(F)(F)F)c1 (configuration not stated) | 77 to 79
CCn1c(=O)nc(C(C)C)c2cc3c(cc21)OCO3 | 180 to 185
C=Cc1cc2ccccc2[nH]1 | 91
N[C@@H](Cc1ccc(C(F)(F)F)cc1)[C@H](O)c1ccc(F)cc1F (racemic) | 99 to 100
O=C(c1ccccc1)c1ccc(F)c([N+](=O)[O-])c1 | 59
COc1ccc(C=O)cc1OCc1ccc2ccccc2c1 | 80
CCn1c(=O)c2[nH]c(/C=C/c3ccc(F)c(F)c3)nc2n(CC)c1=O | > 300
Cc1nnc(-c2ccc3occ(-c4cc(F)ccc4F)c3c2)o1 | 143 to 144
CCCCSc1c2c(=O)n(C)c(=O)n(CC(C)C)c2cn1Cc1cccc2ccccc12 | 92 to 94
OC(Cn1cncn1)(c1ccc(F)cc1)C(F)(F)c1ccc(F)cc1 (configuration not stated) | 128 to 130
Cc1c(-c2ccc(S)nn2)ssc1=S | 245
O=[N+]([O-])c1ccc(F)c2ccccc12 | 75 to 76

Structure (SMILES) | melting point [°C]
O=C(Cc1ccccc1)c1ccc(OCCN2CCCC2)cc1 | 77 to 78
COc1cc(C[C@H](NC(=O)OC(C)(C)C)C(=O)O)cc(OC)c1OC | 76 to 80
O=C1NC(=O)c2cc(Nc3ccc(F)cc3)c(Nc3ccc(F)cc3)cc21 | > 220
CC(C)(C)[C@H]1Cn2c(nc3c(C4OCCO4)cccc32)-c2ccccc2O1 | 150 to 152
COc1cc2c(cc1OC)C(C(S)(C#N)c1ccccc1)=NCC2 (configuration not stated) | 160 to 161
Nc1cc(C(=O)OCc2ccccc2)ccc1OCc1ccccc1 | 79 to 81
O=C(Nc1ccccc1)n1nc(-c2ccccc2)cc1Sc1ccccc1 | 138 to 140
CCOc1nc(N)nc(OC(F)(F)F)n1 | 69 to 71
Nc1nc2c(sc(=O)n2CC2CCCO2)c(=O)[nH]1 (configuration not stated) | 257 to 261
O=c1c2ccc(Cl)cc2[nH]n1-c1ccccc1F | 205 to 215
CC(N=c1cccccc1NC(C)c1ccccc1)c1ccccc1 (configuration not stated) | 74
CC(Cc1cccc(C(F)(F)F)c1)N(CC(=O)O)Cc1ccccc1 (configuration not stated) | 80
CCCC(CCC)NC(=O)c1ccc2oc(CCl)nc2c1 | 108 to 109
CCOC(=O)c1cn2c(n1)CN=C(c1ccccn1)c1cc(Br)ccc1-2 | 227 to 230
Cc1cc(C)cc(Sc2cccc(N)c2C#N)c1 | 124 to 125
N#CC(=C1C=CC(=NO[Si](c2ccccc2)(c2ccccc2)c2ccccc2)C=C1)c1ccccc1 | 161 to 165
O=C(c1ccc(Cl)cc1)C(F)CCCl (configuration not stated) | 53
CCNC(=S)NNC(=O)OC | 117
Nc1ccc(SC2=CCCCC2)cc1[N+](=O)[O-] | 93 to 95
CCn1c(COc2ccc(NC(=O)c3cc(F)cc(N4CCOCC4)c3)c3ccccc23)n[nH]c1=O | 260
CN1C[C@H](O)C[C@H]1C(N)=O | 138 to 140

Now from value to compound:

melting point [°C] | Structure (SMILES)
75 to 75.8 | COc1ccc(C(=O)C=Cc2ccccc2F)c(OC)c1OC
161 to 163 | O=C(NCCCCN1CCN(c2csc3cc(F)ccc23)CC1)c1ccc(F)cc1
225 | CC1=C(C#N)C(c2ccccc2[N+](=O)[O-])C(C(=O)O)=C(C)N1 (configuration not stated)
132 to 136 | CCC1(C)CC(O)C2(C)CCC3c4ccc(O)cc4CCC3C12 (configuration not stated)
152 to 153 | Cc1ccc(S(=O)(=O)N(Cc2cc(C(C)(C)C)c(O)c(C(C)(C)C)c2)c2ccc(Cl)nc2)cc1
157 | Cc1ccc(CCc2nc3cc(-c4ccc(S(=O)(=O)N(C)C)cc4)cnc3[nH]2)nc1N
195 | O=C(Nc1ccc(N2CCOCC2=O)cc1)[C@H]1CCCN1C(=O)c1ccc(Cl)s1
209 to 211 | CC1c2ccccc2-c2sc(Br)cc2N1S(=O)(=O)c1ccc(O)cc1 (configuration not stated)
197 to 199 | CC1(C)Oc2ccc3nc(C(N)=O)ccc3c2C(NCCc2ccccc2)C1O (configuration not stated)
213 to 218 | CC(C)(C)OC(=O)Nc1ccc(C#Cc2ccc(Cl)cc2)cc1[N+](=O)[O-]
113 to 114 | O=S(=O)(c1ccccc1)c1ccc(Oc2ccc(Cl)c(Cl)c2)nc1
124 | CNC(=S)C1(c2ccc3ccccc3n2)CCCS1 (configuration not stated)
208 to 211 | O=C(O)Cc1cccc2c(=O)cc(-c3cccc(F)c3)oc12
199 to 201 | COc1cc(N)c(Cl)cc1C(=O)NCC1CCN(CCCC(=O)c2ccc(O)cc2)CC1
98 to 105 | CN(C)Cc1ccc(NC(=O)Nc2ccc(Oc3cc(Cl)ncn3)cc2)cc1C(F)(F)F
55 to 65 | O=C(N[C@@H](Cc1ccccc1)C(=O)COC(=O)N1CCC[C@H]1C(=O)O)c1ccccc1
241 to 243 | CCCc1nn(C)c2c(=O)[nH]c(Cc3ccc(NC(=O)/C=C/OCC)cc3)nc12
98 to 100 | COc1ccc(/C=C/C(=O)C#CC(=O)O)cc1
152 to 154 | COC(=O)c1ccc(N2CC(CNC(C)=S)OC2=O)cc1F (configuration not stated)
258 to 260 | Cc1ccc(NC(=O)c2c(Cl)cccc2Cl)c2nccc(Cl)c12

melting point [°C] | Structure (SMILES)
219 to 221 | O=c1nc(NCCCOc2cccc(CN3CCCCC3)c2)c2ccccc2[nH]1
224 to 226 | O=C1CCC(N2Cc3c(OCc4ccc(Cl)cc4)cccc3C2=O)C(=O)N1 (configuration not stated)
225 to 226 | CNC(=O)NS(=O)(=O)c1ccccc1OC(Cl)=CCl
101 to 103 | COc1cc(C)nc(Nc2ccc(Cl)cc2)n1
136 | CC(=O)C(C)c1ccc2c(c1)Cc1cccnc1O2 (configuration not stated)
136 to 137 | Cc1ccc(C2COc3c(ccc(O)c3C)C2)cc1 (configuration not stated)
198 to 200 | CCOC(=O)c1cn(-c2ccc([N+](=O)[O-])cc2)cn1
216 to 217 | O=C(NC1CCN(CCc2ccccc2)CC1)C1=Cc2cnc3cccc(n23)S1
170 to 172 | COc1ccc(/C(=C/C(=O)O)c2cc(F)cc(F)c2)cc1
267 to 270 | Cc1cc(C)cc(-c2nc(NC(=O)c3cccnc3)sc2-c2ccncc2)c1
120 | COc1ccc2ccc(N3C(=O)c4ccccc4C3OCC(=O)CC(C)C)nc2n1 (configuration not stated)
88 to 89.5 | CC=COC(=O)C1(S(=O)(=O)C(C)(C)C)C=CC=CC1C[C@H](N)C(=O)O (some centres not stated)
122 to 123 | COC(=O)C(=O)c1ccc(OCCOc2ccc([N+](=O)[O-])cc2)cc1
96 to 97 | COC(=O)c1oc(C)nc1-c1ccc2c(c1)CCCC2
182 | CCCc1nc2c(C)cc(C)nc2n1Cc1ccc(-c2ccccc2-c2c(O)c(=O)c2=O)cc1
154 to 158 | Cc1ccc(NC(=O)c2ccc(CN3CC[N+](C)([O-])CC3)cc2)cc1Nc1nccc(-c2cccnc2)n1
102 to 105 | N#CC=C1CCN(c2ccc(N3C[C@H](CNC(=S)CO)OC3=O)cc2F)CC1
39 to 40 | Cc1nc(N2CCCC(NCc3ccc(C(F)(F)F)cc3)C2=O)sc1C(=O)NCc1ccccc1 (configuration not stated)
234 | CC(C)(C)C(=O)Nc1nc(Cl)c2c(n1)[nH]c1ccccc12
144 to 146 | COC(=O)c1ccc(C(=O)c2cccnc2)cc1

melting point [°C] | Structure (SMILES)
180 to 185 | COc1ccc(-c2cc(Nc3ccc(NS(C)(=O)=O)cc3)nc(C)n2)cc1OC
271 to 272 | O=c1[nH]c2ncc(-c3ccc(O)cc3)nc2n1CC1CCCOC1 (configuration not stated)
189 to 192 | CC(C)c1ccc2c(c1)c(SC(C)(C)C)c(CC(C)(C)C(=O)O)n2Cc1ccc(Cl)cc1
173 to 175 | CCOC(=O)c1ccc(NC(=O)C=Cc2ccc3ccccc3c2)cc1
80 to 82 | C=CCC(CC)(C(=O)c1ccc(OCCO)cc1)N(C)C (configuration not stated)
191 to 192 | O=C(O)/C=C/c1cc(C2CC2)nn1Cc1ccc(C(F)(F)F)cc1Cl
143 to 144 | F[C@H]1C[C@H](COc2ccccc2Cl)N(c2ncnc3[nH]cnc23)C1
175 to 185 | CC(=O)Nc1ccc(Nc2c([N+](=O)[O-])cc(C(=O)O)cc2S(=O)(=O)NC(C)=O)cc1
112 to 113 | COC(=O)c1c(-c2ccccc2)nn2c1-c1ccccc1CC2
290 | Oc1ncn(-c2cccc(F)n2)n1
114 to 115 | COc1cc(O[C@@H](C)C(=O)O)c(Cl)cc1Cl
203 | COc1ccc(S(=O)(=O)C2(C(=O)O)CCN(CCCc3ccccc3)CC2)cc1
93 to 96 | COc1cc(C(=O)COC(C)=O)ccc1OCCCCl
140 | CCOCc1nc2c(N)nc3cc(O)ccc3c2n1CC(C)(C)NC(C)=O
100 to 102 | Cc1ccc(C(=O)OC2CCN(Cc3cccc(N)c3)CC2)cc1
80 to 83 | C=CCOc1c(C(C)=O)ccc(OCCCOc2ccc3cc(C(=O)OC)oc3c2C)c1CCC
176 | CS(=O)(=O)c1ccc(C(=O)C(=CO)C(=O)C2CC2)c(Cl)c1-c1nccs1
195 to 198 | CCOc1cc2c(cc1OC)C(c1ccc(C(=O)N(C(C)C)C(C)C)cc1)=NC1CC[N+](C)([O-])CC21 (configuration not stated)
111 to 114 | COc1cc(C=CC(=O)c2ccc(O)c(OC)c2)ccc1O
